# According to patent US9149038B2, “4-amino-6-(heterocyclic)picolinates and 6-amino-2-(heterocyclic)pyrimidine-4-carboxylates and their use as herbicides” (Dow AgroSciences LLC, priority 2013, dated 2015):
# Where two headings read alike, the source gives them in different places.
# Test system: Wheat and Barley and weed species
# Test: Post-Emergent Test III: postemergent herbicidal activity in wheat and barley, visual rating after 21 d and probit GR20/GR50/GR80/GR90 (Tables 9-13)
# Type: in vivo
# Conditions: for pest or weed control at 17.5 g/ha / pest or weed control at 35 g/ha / pest or weed control at 70 g/ha: post-emergence, 504 h
# Procedure, shortened: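 Greenhouse plants (~18/17 °C, 14 h photoperiod) at second–third true leaf stage sprayed at 187 L/ha with a high rate and ½× to 1/16× serial dilutions. Visual injury 0–100% versus solvent-blank controls scored at 21 d; GR20, GR50, GR80 and GR90 derived by probit analysis across rates.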
structure (smiles),measurement,setting,value
"COC(=O)c1nc(-c2ccc(Br)c3c2OC(F)(F)O3)c(F)c(N)c1Cl [Compound 78, Methyl 4-amino-6-(7-bromo-2,2-difluorobenzo[d][1,3]dioxol-4-yl)-3-chloro-5-fluoropicolinate]",Visual Growth Reduction (%) 21 Days After Application CIRAR,"CIRAR Canada thistle (Cirsium arvense), 17.5 g ai/ha",B (85-94)
same,Visual Growth Reduction (%) 21 Days After Application CIRAR,"CIRAR Canada thistle (Cirsium arvense), 35 g ai/ha",B (85-94)
same,Visual Growth Reduction (%) 21 Days After Application CIRAR,"CIRAR Canada thistle (Cirsium arvense), 70 g ai/ha",B (85-94)
same,GR50 CIRAR,"CIRAR Canada thistle (Cirsium arvense), growth reduction of 50%, probit analysis",2 g ai/ha
same,GR80 CIRAR,"CIRAR Canada thistle (Cirsium arvense), growth reduction of 80%, probit analysis",7 g ai/ha
same,GR90 CIRAR,"CIRAR Canada thistle (Cirsium arvense), growth reduction of 90%, probit analysis",12 g ai/ha
same,Visual Growth Reduction (%) 21 Days After Application GALAP,"GALAP cleavers (Galium aparine), 17.5 g ai/ha",D (60-74)
same,Visual Growth Reduction (%) 21 Days After Application GALAP,"GALAP cleavers (Galium aparine), 35 g ai/ha",D (60-74)
same,Visual Growth Reduction (%) 21 Days After Application GALAP,"GALAP cleavers (Galium aparine), 70 g ai/ha",D (60-74)
same,GR50 GALAP,"GALAP cleavers (Galium aparine), growth reduction of 50%, probit analysis",1 g ai/ha
same,GR80 GALAP,"GALAP cleavers (Galium aparine), growth reduction of 80%, probit analysis",>140 g ai/ha
same,GR90 GALAP,"GALAP cleavers (Galium aparine), growth reduction of 90%, probit analysis",>140 g ai/ha
same,GR20 HORVS,"HORVS barley, spring (crop), growth reduction of 20%, probit analysis",13 g ai/ha
same,pest or weed control at 17.5 g/ha,"Hordeum vulgare, HORVS barley, spring (crop), 17.5 g ai/ha, read-out: Visual Growth Reduction (%) 21 Days After Application HORVS",30 to 44%
same,pest or weed control at 35 g/ha,"Hordeum vulgare, HORVS barley, spring (crop), 35 g ai/ha, read-out: Visual Growth Reduction (%) 21 Days After Application HORVS",45 to 59%
same,pest or weed control at 70 g/ha,"Hordeum vulgare, HORVS barley, spring (crop), 70 g ai/ha, read-out: Visual Growth Reduction (%) 21 Days After Application HORVS",60 to 74%
same,Visual Growth Reduction (%) 21 Days After Application KCHSC,"KCHSC kochia (Kochia scoparia), 17.5 g ai/ha",B (85-94)
same,Visual Growth Reduction (%) 21 Days After Application KCHSC,"KCHSC kochia (Kochia scoparia), 35 g ai/ha",A (95-100)
same,Visual Growth Reduction (%) 21 Days After Application KCHSC,"KCHSC kochia (Kochia scoparia), 70 g ai/ha",A (95-100)
same,GR50 KCHSC,"KCHSC kochia (Kochia scoparia), growth reduction of 50%, probit analysis",2 g ai/ha
same,GR80 KCHSC,"KCHSC kochia (Kochia scoparia), growth reduction of 80%, probit analysis",9 g ai/ha
same,GR90 KCHSC,"KCHSC kochia (Kochia scoparia), growth reduction of 90%, probit analysis",19 g ai/ha
same,Visual Growth Reduction (%) 21 Days After Application LAMPU,"LAMPU purple deadnettle (Lamium purpureum), 17.5 g ai/ha",D (60-74)
same,Visual Growth Reduction (%) 21 Days After Application LAMPU,"LAMPU purple deadnettle (Lamium purpureum), 35 g ai/ha",C (75-84)
same,Visual Growth Reduction (%) 21 Days After Application LAMPU,"LAMPU purple deadnettle (Lamium purpureum), 70 g ai/ha",B (85-94)
same,GR50 LAMPU,"LAMPU purple deadnettle (Lamium purpureum), growth reduction of 50%, probit analysis",2 g ai/ha
same,GR80 LAMPU,"LAMPU purple deadnettle (Lamium purpureum), growth reduction of 80%, probit analysis",46 g ai/ha
same,GR90 LAMPU,"LAMPU purple deadnettle (Lamium purpureum), growth reduction of 90%, probit analysis",>140 g ai/ha
same,Visual Growth Reduction (%) 21 Days After Application MATCH,"MATCH wild chamomile (Matricaria recutita L.), 17.5 g ai/ha",G (0-29)
same,Visual Growth Reduction (%) 21 Days After Application MATCH,"MATCH wild chamomile (Matricaria recutita L.), 35 g ai/ha",F (30-44)
same,Visual Growth Reduction (%) 21 Days After Application MATCH,"MATCH wild chamomile (Matricaria recutita L.), 70 g ai/ha",E (45-59)
same,GR50 MATCH,"MATCH wild chamomile (Matricaria recutita L.), growth reduction of 50%, probit analysis",63 g ai/ha
same,GR80 MATCH,"MATCH wild chamomile (Matricaria recutita L.), growth reduction of 80%, probit analysis",>140 g ai/ha
same,GR90 MATCH,"MATCH wild chamomile (Matricaria recutita L.), growth reduction of 90%, probit analysis",>140 g ai/ha
same,Visual Growth Reduction (%) 21 Days After Application PAPRH,"PAPRH common poppy (Papaver rhoeas), 17.5 g ai/ha",F (30-44)
same,Visual Growth Reduction (%) 21 Days After Application PAPRH,"PAPRH common poppy (Papaver rhoeas), 35 g ai/ha",D (60-74)
same,Visual Growth Reduction (%) 21 Days After Application PAPRH,"PAPRH common poppy (Papaver rhoeas), 70 g ai/ha",C (75-84)
same,GR50 PAPRH,"PAPRH common poppy (Papaver rhoeas), growth reduction of 50%, probit analysis",44 g ai/ha
same,GR80 PAPRH,"PAPRH common poppy (Papaver rhoeas), growth reduction of 80%, probit analysis",>140 g ai/ha
same,GR90 PAPRH,"PAPRH common poppy (Papaver rhoeas), growth reduction of 90%, probit analysis",>140 g ai/ha
same,Visual Growth Reduction (%) 21 Days After Application SASKR,"SASKR Russian thistle (Salsola iberica), 17.5 g ai/ha",B (85-94)
same,GR50 SASKR,"SASKR Russian thistle (Salsola iberica), growth reduction of 50%, probit analysis",0.4 g ai/ha
same,GR80 SASKR,"SASKR Russian thistle (Salsola iberica), growth reduction of 80%, probit analysis",9 g ai/ha
same,GR90 SASKR,"SASKR Russian thistle (Salsola iberica), growth reduction of 90%, probit analysis",42 g ai/ha
same,Visual Growth Reduction (%) 21 Days After Application SINAR,"SINAR wild mustard (Sinapis arvensis), 17.5 g ai/ha",A (95-100)
same,Visual Growth Reduction (%) 21 Days After Application SINAR,"SINAR wild mustard (Sinapis arvensis), 35 g ai/ha",A (95-100)
same,Visual Growth Reduction (%) 21 Days After Application SINAR,"SINAR wild mustard (Sinapis arvensis), 70 g ai/ha",A (95-100)
same,GR50 SINAR,"SINAR wild mustard (Sinapis arvensis), growth reduction of 50%, probit analysis",1 g ai/ha
same,GR80 SINAR,"SINAR wild mustard (Sinapis arvensis), growth reduction of 80%, probit analysis",3 g ai/ha
same,GR90 SINAR,"SINAR wild mustard (Sinapis arvensis), growth reduction of 90%, probit analysis",8 g ai/ha
same,GR20 TRZAS,"TRZAS wheat, spring (crop), growth reduction of 20%, probit analysis",20 g ai/ha
same,pest or weed control at 17.5 g/ha,"Triticum aestivum, TRZAS wheat, spring (crop), 17.5 g ai/ha, read-out: Visual Growth Reduction (%) 21 Days After Application TRZAS",0 to 29%
same,pest or weed control at 35 g/ha,"Triticum aestivum, TRZAS wheat, spring (crop), 35 g ai/ha, read-out: Visual Growth Reduction (%) 21 Days After Application TRZAS",30 to 44%
same,pest or weed control at 70 g/ha,"Triticum aestivum, TRZAS wheat, spring (crop), 70 g ai/ha, read-out: Visual Growth Reduction (%) 21 Days After Application TRZAS",45 to 59%
same,Visual Growth Reduction (%) 21 Days After Application VERPE,"VERPE bird's-eye speedwell (veronica persica), 17.5 g ai/ha",G (0-29)
same,Visual Growth Reduction (%) 21 Days After Application VERPE,"VERPE bird's-eye speedwell (veronica persica), 35 g ai/ha",D (60-74)
same,Visual Growth Reduction (%) 21 Days After Application VERPE,"VERPE bird's-eye speedwell (veronica persica), 70 g ai/ha",C (75-84)
same,GR50 VERPE,"VERPE bird's-eye speedwell (veronica persica), growth reduction of 50%, probit analysis",33 g ai/ha
same,GR80 VERPE,"VERPE bird's-eye speedwell (veronica persica), growth reduction of 80%, probit analysis",77 g ai/ha
same,GR90 VERPE,"VERPE bird's-eye speedwell (veronica persica), growth reduction of 90%, probit analysis",119 g ai/ha
same,Visual Growth Reduction (%) 21 Days After Application VIOTR,"VIOTR wild pansy (Viola tricolor), 17.5 g ai/ha",F (30-44)
same,Visual Growth Reduction (%) 21 Days After Application VIOTR,"VIOTR wild pansy (Viola tricolor), 35 g ai/ha",F (30-44)
same,Visual Growth Reduction (%) 21 Days After Application VIOTR,"VIOTR wild pansy (Viola tricolor), 70 g ai/ha",D (60-74)
same,GR50 VIOTR,"VIOTR wild pansy (Viola tricolor), growth reduction of 50%, probit analysis",47 g ai/ha
same,GR80 VIOTR,"VIOTR wild pansy (Viola tricolor), growth reduction of 80%, probit analysis",>140 g ai/ha
same,GR90 VIOTR,"VIOTR wild pansy (Viola tricolor), growth reduction of 90%, probit analysis",>140 g ai/ha
